The target of one test is b-Raf (V600E) (Homo sapiens (Human), UniProt P15056, V600E). Kind of test: In vitro Raf activity determination (Alpha Screen, phospho-MEK), b-Raf (V600E). It counts as biochemical. Particulars: ATP 10 μM, 60 min pre-incubation, 3 hours reaction. From the text: The activity of a compound according to the present invention can be assessed by well-known in vitro & in vivo methods. Raf inhibition data provided herein was obtained using the following procedures.
Sf9 cells co-expressing both proteins were lysed and subjected to immobilized nickel chromatography and eluted with Imidazole. A second column (StrepII binding column) was used and eluted with desthiobiotin. Protein Tags were removed using Prescission enzyme and the protein was further purified using a flowthrough step to remove tags.
Full length MEK1 with an inactivating K97R ATP binding site mutation is utilized as a RAF substrate. The MEK1 cDNA was subcloned with an N-terminal (his)6 tag into a vector for E. Coli expression. The MEK1 substrate was purified from E. Coli lysate by nickel affinity chromatography followed by anion exchange. The final MEK1 preparation was biotinylated (Pierce EZ-Link Sulfo-NHS-LC-Biotin) and concentrated.
The plate was incubated for 60 minutes at room temperature. […] The additions were carried out under dark conditions to protect the detection beads from light. A lid was placed on top of the plate and incubated for 1 hour at room temperature, after which the luminescence was read on a PerkinElmer Envision instrument.

The next test addresses C-Raf FL (Homo sapiens (Human), UniProt P04049, Y340E/Y341E). The test is described as follows: In vitro Raf activity determination (Alpha Screen, phospho-MEK), C-Raf FL (full length, Y340E/Y341E). Particulars: ATP 1 μM; 60 min pre-incubation; 1 hour reaction; column head does not say FL or TR. The class given is biochemical. The method in brief: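 Sf9-expressed C-Raf incubated with biotinylated kinase-dead MEK1 (K97R) in 50 mM Tris pH 7.5, 15 mM MgCl2, 0.01% BSA, 1 mM DTT with compound, 60 min at room temperature. Phospho-MEK detected by anti-p-MEK AlphaScreen luminescence; IC50 by non-linear regression.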

For orientation: IC50 means the midpoint of a concentration-inhibition curve. Read a high IC50 as a need for much substance.

Chain of b-Raf (V600E) (P15056 whole entry V600E): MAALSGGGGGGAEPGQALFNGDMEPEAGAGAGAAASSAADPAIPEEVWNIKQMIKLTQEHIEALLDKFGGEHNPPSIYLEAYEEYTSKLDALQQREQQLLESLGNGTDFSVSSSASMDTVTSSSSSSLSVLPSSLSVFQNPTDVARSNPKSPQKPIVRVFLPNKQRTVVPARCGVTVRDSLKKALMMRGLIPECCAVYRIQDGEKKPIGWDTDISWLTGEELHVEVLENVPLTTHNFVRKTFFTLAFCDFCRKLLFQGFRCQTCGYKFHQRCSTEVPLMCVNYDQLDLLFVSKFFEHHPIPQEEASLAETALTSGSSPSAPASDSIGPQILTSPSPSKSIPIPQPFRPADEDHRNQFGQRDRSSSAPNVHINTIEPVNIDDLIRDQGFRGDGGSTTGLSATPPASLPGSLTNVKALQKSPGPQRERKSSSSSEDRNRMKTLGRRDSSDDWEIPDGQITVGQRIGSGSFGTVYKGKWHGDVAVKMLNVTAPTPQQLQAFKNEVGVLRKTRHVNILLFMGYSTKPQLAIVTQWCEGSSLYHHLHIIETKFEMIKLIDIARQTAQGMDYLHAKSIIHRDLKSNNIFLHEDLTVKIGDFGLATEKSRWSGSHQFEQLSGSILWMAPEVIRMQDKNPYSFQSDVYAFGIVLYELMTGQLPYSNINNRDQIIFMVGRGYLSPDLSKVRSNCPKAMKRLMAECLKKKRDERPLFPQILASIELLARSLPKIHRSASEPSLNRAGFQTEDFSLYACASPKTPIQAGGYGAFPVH
Chain of C-Raf FL (P04049 whole entry Y340E/Y341E): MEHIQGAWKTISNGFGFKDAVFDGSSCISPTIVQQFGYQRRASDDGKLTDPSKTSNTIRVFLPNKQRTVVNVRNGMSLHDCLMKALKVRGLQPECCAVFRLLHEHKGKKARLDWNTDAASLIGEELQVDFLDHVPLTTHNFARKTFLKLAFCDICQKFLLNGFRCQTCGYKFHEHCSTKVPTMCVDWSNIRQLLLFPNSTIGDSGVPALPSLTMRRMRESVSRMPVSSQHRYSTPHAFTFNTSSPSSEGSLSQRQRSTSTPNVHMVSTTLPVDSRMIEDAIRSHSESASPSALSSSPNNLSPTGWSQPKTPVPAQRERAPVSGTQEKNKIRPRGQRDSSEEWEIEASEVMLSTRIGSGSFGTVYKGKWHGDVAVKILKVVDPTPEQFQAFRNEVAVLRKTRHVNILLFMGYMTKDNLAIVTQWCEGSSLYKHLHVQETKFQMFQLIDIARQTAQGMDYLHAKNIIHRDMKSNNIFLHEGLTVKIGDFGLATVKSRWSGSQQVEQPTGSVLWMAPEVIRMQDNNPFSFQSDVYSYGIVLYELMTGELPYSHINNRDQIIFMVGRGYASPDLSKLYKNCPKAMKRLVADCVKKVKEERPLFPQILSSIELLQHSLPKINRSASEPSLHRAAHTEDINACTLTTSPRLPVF
Chain of C-Raf FL (P63104 whole entry partner): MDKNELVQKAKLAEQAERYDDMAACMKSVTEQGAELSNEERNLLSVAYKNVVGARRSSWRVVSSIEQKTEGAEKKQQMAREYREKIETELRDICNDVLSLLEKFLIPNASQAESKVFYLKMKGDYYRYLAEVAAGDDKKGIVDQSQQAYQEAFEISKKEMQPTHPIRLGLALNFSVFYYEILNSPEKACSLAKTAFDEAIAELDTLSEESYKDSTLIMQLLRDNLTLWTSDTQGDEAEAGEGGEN

Regarding `CCOc1ncc(-c2cc(NC(=O)c3ccnc(C(C)(C)F)c3)cnc2C)cc1C1(CF)COC1` [Example 131, N-(6′-ethoxy-5′-(3-(fluoromethyl)oxetan-3-yl)-2-methyl-[3,3′-bipyridin]-5-yl)-2-(2-fluoropropan-2-yl)isonicotinamide], the IC50 against b-Raf (V600E) is 1.3 nM; at C-Raf FL, 0.31 nM.

Turning to `COc1ncc(-c2cc(NC(=O)c3ccnc(C(C)(C)F)c3)cnc2C)cc1C1(C(F)F)COC1` [Example 42, N-(5′-(3-(difluoromethyl)oxetan-3-yl)-6′-methoxy-2-methyl-[3,3′-bipyridin]-5-yl)-2-(2-fluoropropan-2-yl)isonicotinamide], the IC50 on b-Raf (V600E) is 1.42 nM; against C-Raf FL, 0.243 nM.

`COc1ncc(-c2cc(NC(=O)c3ccnc(C(C)(C)C#N)c3)ccc2C)cc1C1(CF)COC1` [Example 106, 2-(2-cyanopropan-2-yl)-N-(3-(5-(3-(fluoromethyl)oxetan-3-yl)-6-methoxypyridin-3-yl)-4-methylphenyl)isonicotin-amide]: the figures for the IC50 at b-Raf (V600E) and against C-Raf FL were 0.58 nM and 0.146 nM, respectively.

In the case of `Cc1ccc(NC(=O)c2cccc(C(F)(F)F)c2)cc1-c1cnc(OC2CCOCC2)c(C2(O)COC2)c1` [Example 119, N-(3-(5-(3-hydroxyoxetan-3-yl)-6-((tetrahydro-2H-pyran-4-yl)oxy)pyridin-3-yl)-4-methylphenyl)-3-(trifluoromethyl)benzamide], the IC50 on b-Raf (V600E) stood at 0.808 nM; on C-Raf FL it was 0.176 nM.

As to `COc1ncc(-c2cc(NC(=O)c3cc(C(F)(F)F)ccn3)cnc2C)cc1C1(F)COC1` [Example 83, N-(5′-(3-fluorooxetan-3-yl)-6′-methoxy-2-methyl-[3,3′-bipyridin]-5-yl)-4-(trifluoromethyl)picolin-amide], the figures for the concentration for half-maximal inhibition (IC50) on b-Raf (V600E) and against C-Raf FL were 0.0593 nM and 0.0136 nM, respectively.

For `CCOc1ncc(-c2cc(NC(=O)c3cc(C(C)(C)N)cc(C(F)(F)F)c3)ccc2C)cc1C1(O)COC1` [Example 120, 3-(2-aminopropan-2-yl)-N-(3-(6-ethoxy-5-(3-hydroxyoxetan-3-yl)pyridin-3-yl)-4-methylphenyl)-5-(trifluoromethyl)benzamide], the IC50 against b-Raf (V600E) was 10 nM; at C-Raf FL, 2.2 nM.

Consider `COc1ncc(-c2cc(NC(=O)c3cc(C(C)(C)F)ccn3)ccc2C)cc1C1(O)COC1` [Example 95, 4-(2-fluoropropan-2-yl)-N-(3-(5-(3-hydroxyoxetan-3-yl)-6-methoxypyridin-3-yl)-4-methylphenyl)picolinamide], for which the IC50 on b-Raf (V600E) amounted to 3.92 nM; at C-Raf FL it was 0.514 nM.

On to `COc1ncc(-c2cc(NC(=O)c3ccnc(C(C)(C)F)c3)cnc2C)cc1C1(F)COC1` [Example 82, N-(5′-(3-fluorooxetan-3-yl)-6′-methoxy-2-methyl-[3,3′-bipyridin]-5-yl)-2-(2-fluoropropan-2-yl)isonicotinamide], for which the IC50 against b-Raf (V600E) came out at 3.73 nM; against C-Raf FL it was 1.13 nM.

Take `Cc1ncc(NC(=O)c2cccc(C(F)(F)F)c2)cc1-c1cnc(OCCO)c(C2(F)COC2)c1` [Example 37, N-(5′-(3-fluorooxetan-3-yl)-6′-(2-hydroxyethoxy)-2-methyl-[3,3′-bipyridin]-5-yl)-3-(trifluoromethyl)benzamide]: the IC50 against b-Raf (V600E) turned out to be 1.85 nM; at C-Raf FL, 0.354 nM.

`COc1cc(-c2cc(NC(=O)c3cccc(C(F)(F)F)c3)cnc2C)cc(C2COC2)c1` [Example 20, N-(5-(3-methoxy-5-(oxetan-3-yl)phenyl)-6-methylpyridin-3-yl)-3-(trifluoromethyl)-benzamide]: the values for the IC50 against b-Raf (V600E) and on C-Raf FL were 6.88 nM and 0.628 nM, respectively.

As for `Cc1ncc(NC(=O)c2ccnc(C(F)(F)F)c2)cc1-c1cnc(OCCO)c(C2(F)COC2)c1` [Example 38, N-(5′-(3-fluorooxetan-3-yl)-6′-(2-hydroxyethoxy)-2-methyl-[3,3′-bipyridin]-5-yl)-2-(trifluoromethyl)isonicotin-amide], the IC50 on b-Raf (V600E) was 4.84 nM; on C-Raf FL it was 0.729 nM.

As for `COc1ncc(-c2cc(NC(=O)c3ccnc(C(C)(C)F)c3)ccc2C)cc1C1(C#N)COC1` [Example 111, N-(3-(5-(3-cyanooxetan-3-yl)-6-methoxypyridin-3-yl)-4-methylphenyl)-2-(2-fluoropropan-2-yl)isonicotinamide], the IC50 against b-Raf (V600E) was found to be 2.75 nM; against C-Raf FL, 0.716 nM.

As to `COc1ncc(-c2cc(NC(=O)c3cc(C(C)(C)N)cc(C(F)(F)F)c3)cnc2C)cc1C1(F)COC1` [Example 102, 3-(2-aminopropan-2-yl)-N-(5′-(3-fluorooxetan-3-yl)-6′-methoxy-2-methyl-[3,3′-bipyridin]-5-yl)-5-(trifluoromethyl)benzamide], the IC50 on b-Raf (V600E) turned out to be 13.2 nM; on C-Raf FL it was 2.68 nM.

`COc1ncc(-c2cc(NC(=O)c3cc(C(C)(C)C#N)ccn3)ccc2C)cc1C1(F)COC1` [Example 87]: the values for the IC50 at b-Raf (V600E) and against C-Raf FL were 3.56 nM and 0.622 nM, respectively.

Regarding `Cc1ncc(NC(=O)c2ccnc(C(C)(C)F)c2)cc1-c1cccc(C2(C)COC2)c1` [Example 69, 2-(2-fluoropropan-2-yl)-N-(6-methyl-5-(3-(3-methyloxetan-3-yl)phenyl)pyridin-3-yl)isonicotinamide], the values for the IC50 on b-Raf (V600E) and at C-Raf FL were 5.1 nM and 0.895 nM, respectively.

For `Cc1ccc(NC(=O)c2ccnc(C(C)(C)C#N)c2)cc1-c1cnc(OC2CCOCC2)c(C2(O)COC2)c1` [Example 33, 2-(2-cyanopropan-2-yl)-N-(3-(5-(3-hydroxyoxetan-3-yl)-6-((tetrahydro-2H-pyran-4-yl)oxy)pyridin-3-yl)-4-methylphenyl)isonicotin-amide], the IC50 at b-Raf (V600E) came to 2.14 nM; against C-Raf FL it was 0.804 nM.

For the molecule `COc1ncc(-c2cc(NC(=O)c3ccnc(C(C)(F)F)c3)ccc2C)cc1C1(O)COC1` [Example 74, 2-(1,1-difluoroethyl)-N-(3-(5-(3-hydroxyoxetan-3-yl)-6-methoxypyridin-3-yl)-4-methylphenyl)isonicotin-amide], the IC50 against b-Raf (V600E) was 2.07 nM; against C-Raf FL it was 0.36 nM.

Turning to `CCOc1nnc(-c2cc(NC(=O)c3ccnc(C(C)(C)F)c3)cnc2C)cc1C1(C)COC1` [Example 128, N-(5-(6-ethoxy-5-(3-methyloxetan-3-yl)pyridazin-3-yl)-6-methylpyridin-3-yl)-2-(2-fluoropropan-2-yl)isonicotinamide], the IC50 against b-Raf (V600E) amounted to 2.15 nM; against C-Raf FL, 0.633 nM.

For the molecule `CCOc1ncc(-c2cc(NC(=O)c3ccnc(C(C)(C)C#N)c3)cnc2C)cc1C1(C)COC1` [Example 64, 2-(2-cyanopropan-2-yl)-N-(6′-ethoxy-2-methyl-5′-(3-methyloxetan-3-yl)-[3,3′-bipyridin]-5-yl)isonicotinamide], the figures for the half-maximal inhibitory concentration (IC50) against b-Raf (V600E) and against C-Raf FL were 7.12 nM and 1.18 nM, respectively.

On to `COc1ncc(-c2cc(NC(=O)c3ccnc(C(C)(C)C#N)c3)ccc2C)cc1C1(O)COC1` [Example 72, 2-(2-cyanopropan-2-yl)-N-(3-(5-(3-hydroxyoxetan-3-yl)-6-methoxypyridin-3-yl)-4-methylphenyl)isonicotin-amide], for which the IC50 against b-Raf (V600E) was 4.2 nM; on C-Raf FL, 1.04 nM.

Turning to `CCOc1ncc(-c2cc(NC(=O)c3cnnc(C(F)(F)F)c3)ccc2C)cc1C1(C)COC1` [Example 67, N-(3-(6-ethoxy-5-(3-methyloxetan-3-yl)pyridin-3-yl)-4-methylphenyl)-6-(trifluoromethyl)pyridazine-4-carboxamide], the IC50 was 0.304 nM at b-Raf (V600E) and 0.078 nM at C-Raf FL.

For the molecule `COc1ncc(-c2cc(NC(=O)c3ccnc(C(F)(F)F)c3)cnc2C)cc1C1(C#N)COC1` [Example 115, N-(5′-(3-cyanooxetan-3-yl)-6′-methoxy-2-methyl-[3,3′-bipyridin]-5-yl)-2-(trifluoromethyl)isonicotin-amide], the values for the IC50 on b-Raf (V600E) and on C-Raf FL were 7.01 nM and 1.06 nM, respectively.

Take `Cc1ccc(NC(=O)c2ccnc(C(C)(C)O)c2)cc1-c1cc(C2(C)COC2)c2nccn2n1` [Example 62, 2-(2-hydroxypropan-2-yl)-N-(4-methyl-3-(8-(3-methyloxetan-3-yl)imidazo[1,2-b]pyridazin-6-yl)phenyl)isonicotinamide]: the IC50 on b-Raf (V600E) amounted to 3.77 nM; at C-Raf FL it was 0.707 nM.

`COc1ncc(-c2cc(NC(=O)c3ccnc(C(C)(C)O)c3)cnc2C)cc1C1(F)COC1` [Example 81, N-(5′-(3-fluorooxetan-3-yl)-6′-methoxy-2-methyl-[3,3′-bipyridin]-5-yl)-2-(2-hydroxypropan-2-yl)isonicotinamide]: the IC50 at b-Raf (V600E) turned out to be 34.9 nM; on C-Raf FL, 4.85 nM.

In the case of `COc1ncc(-c2cc(NC(=O)c3cc(C(C)(C)O)ccn3)ccc2C)cc1C1(F)COC1` [Example 96, N-(3-(5-(3-fluorooxetan-3-yl)-6-methoxypyridin-3-yl)-4-methylphenyl)-4-(2-hydroxypropan-2-yl)picolinamide], the IC50 at b-Raf (V600E) was determined as 4.17 nM; against C-Raf FL, 0.482 nM.

As to `COc1ncc(-c2cc(NC(=O)c3ccnc(C(C)(C)O)c3)ccc2C)cc1C1(O)COC1` [Example 73, N-(3-(5-(3-hydroxyoxetan-3-yl)-6-methoxypyridin-3-yl)-4-methylphenyl)-2-(2-hydroxypropan-2-yl)isonicotinamide], the IC50 on b-Raf (V600E) was 23.4 nM; on C-Raf FL, 3.09 nM.
